Activity calls are given as the source filed them.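 Rule for the calls: active = none, because compounds meeting the potency rule were filed inconclusive for hitting several proteins; inconclusive = EC50 under 20 µM with over 15% binding change; inactive = the rest.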
How the values were obtained:
Test in all cases: small GTPase panel, fluorescent GTP binding blockade – biochemical, Mg buffer, constant GTP, RhoA, Rac1, Cdc42, mechanism study for Ras-family GTPase inhibitor project, profiling panel (AID 2393);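 for EC50: EC50 marks half change in GTP binding and may reflect gain or loss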
Conditions in all cases: GST-GTPase beads, BODIPY-GTP binding, flow cytometry; for GTP binding remaining (% of DMSO): at 100 µM (top of the series)
[1] = biological target: Cell division control protein 42 homolog (Homo sapiens) (UniProt P60953)
[2] = biological target: Transforming protein RhoA (Homo sapiens) (UniProt P61586)
[3] = biological target: Ras-related C3 botulinum toxin substrate 1 (Homo sapiens) (UniProt P63000)

SMILES | EC50 ([1]; Cdc42ACT) | EC50 ([1]; Cdc42WT) | GTP binding remaining (% of DMSO) ([2]; RhoACT) | GTP binding remaining (% of DMSO) ([2]; RhoWT) | GTP binding remaining (% of DMSO) ([3]; Rac1ACT) | GTP binding remaining (% of DMSO) ([3]; Rac1WT) | GTP binding remaining (% of DMSO) ([1]; Cdc42ACT) | EC50 ([3]; Rac1ACT) | EC50 ([2]; RhoACT) | GTP binding remaining (% of DMSO) ([1]; Cdc42WT) | EC50 ([3]; Rac1WT) | EC50 ([2]; RhoWT)
COc1ccc(C2CC(c3ccccc3OC)=NN2c2ccc(S(N)(=O)=O)cc2)cc1 (centres undefined) | 5.28 µM | 5.66 µM | inactive | inactive | inactive | inactive |  |  |  |  |  | 
NS(=O)(=O)c1ccc(N2N=C(c3ccccc3)CC2c2ccccc2Cl)cc1 (centres undefined) |  | inactive | inactive | inactive | inactive | inactive | inactive |  |  |  |  | 
COc1ccc(C2CC(c3ccccc3)=NN2c2ccc(S(N)(=O)=O)cc2)cc1 (centres undefined) | 2.73 µM | 2.5 µM | inactive | inactive |  | inactive |  | inactive |  |  |  | 
COc1ccc(C2CC(c3cccc(C)c3)=NN2c2ccc(S(N)(=O)=O)cc2)cc1 (centres undefined) | 1.85 µM | 2.11 µM | inactive | inactive |  | inactive |  | inactive |  |  |  | 
COc1cccc(C2CC(c3ccccc3)=NN2c2ccc(S(N)(=O)=O)cc2)c1 (centres undefined) | 4.65 µM | 4.69 µM |  | inactive | inactive | inactive |  |  | inactive |  |  | 
COc1ccc(C2CC(c3ccc(Br)cc3)=NN2c2ccc(S(N)(=O)=O)cc2)cc1 (centres undefined) |  |  | inactive | inactive | inactive | inactive | inactive |  |  | inactive |  | 
COc1ccc(C2CC(C(C)(C)C)=NN2c2ccc(S(N)(=O)=O)cc2)cc1 (centres undefined) | 16.4 µM | 14.4 µM | inactive | inactive |  | inactive |  | inactive |  |  |  | 
Cc1ccccc1C1CC(c2ccccc2)=NN1c1ccc(S(N)(=O)=O)cc1 (centres undefined) | 14.7 µM | 15.3 µM | inactive | inactive | inactive | inactive |  |  |  |  |  | 
COc1ccc(C2CC(c3ccc(C(F)(F)F)cc3)=NN2c2ccc(S(N)(=O)=O)cc2)cc1 (centres undefined) |  |  | inactive | inactive | inactive | inactive | inactive |  |  | inactive |  | 
COc1ccc(-c2ccc(CCC(=O)N3CCN(c4cc(C)ccc4C)CC3)o2)cc1 |  |  | inactive | inactive | inactive | inactive | inactive |  |  | inactive |  | 
Cc1ccc(C2CC(c3ccccc3)=NN2c2ccc(S(N)(=O)=O)cc2)cc1 (centres undefined) | 5.07 µM | 4.36 µM | inactive | inactive | inactive |  |  |  |  |  | inactive | 
NS(=O)(=O)c1ccc(N2N=C(c3ccccc3)CC2c2cccc(Cl)c2)cc1 (centres undefined) | 5.08 µM | 3.95 µM | inactive | inactive |  |  |  | inactive |  |  | inactive | 
COc1ccc(-c2cc(CCC(=O)N3CCN(c4cc(C)ccc4C)CC3)on2)cc1 | 2.78 µM | 0.97 µM | inactive |  | inactive |  |  |  |  |  | 2.76 µM | 1.3 µM
COc1ccc(-c2noc(CCC(=O)N3CCN(c4cc(C)ccc4C)CC3)n2)cc1 | inactive | inactive |  |  | inactive |  |  |  | inactive |  | 2.37 µM | inactive
Cc1cccc(C2CC(c3ccccc3)=NN2c2ccc(S(N)(=O)=O)cc2)c1 (centres undefined) | 8.35 µM | 7.7 µM | inactive | inactive | inactive | inactive |  |  |  |  |  | 
COc1ccc(C2CC(c3cccc(C(F)(F)F)c3)=NN2c2ccc(S(N)(=O)=O)cc2)cc1 (centres undefined) |  |  | inactive | inactive | inactive | inactive | inactive |  |  | inactive |  | 
COc1ccc(C2CC(C)=NN2c2ccc(S(N)(=O)=O)cc2)cc1 (centres undefined) |  |  | inactive | inactive |  | inactive | inactive | inactive |  | inactive |  | 
NS(=O)(=O)c1ccc(N2N=C(c3ccccc3)CC2c2cccc(Br)c2)cc1 (centres undefined) | 5.86 µM | 6.95 µM | inactive | inactive | inactive | inactive |  |  |  |  |  | 
NS(=O)(=O)c1ccc(N2N=C(c3ccccc3)CC2c2ccc(Cl)cc2)cc1 (centres undefined) | 4.22 µM | 3.94 µM | inactive | inactive | inactive |  |  |  |  |  | inactive | 
COc1ccc(C2CC(c3cccs3)=NN2c2ccc(S(N)(=O)=O)cc2)cc1 (centres undefined) | 4.28 µM | 4.08 µM | inactive | inactive | inactive | inactive |  |  |  |  |  | 
COc1ccc(C2CC(c3ccc(N(C)C)cc3)=NN2c2ccc(S(N)(=O)=O)cc2)cc1 (centres undefined) |  |  | inactive | inactive | inactive | inactive | inactive |  |  | inactive |  | 
COc1ccc(-c2ccc(CCC(=O)N3CCN(c4cc(C)ccc4C)CC3)[nH]2)cc1 |  |  | inactive | inactive | inactive | inactive | inactive |  |  | inactive |  | 
COc1ccc(C2CC(c3ccc(C)cc3)=NN2c2ccc(S(N)(=O)=O)cc2)cc1 (centres undefined) | inactive | inactive | inactive | inactive | inactive | inactive |  |  |  |  |  | 
COc1ccc(-c2ccc(CCC(=O)N3CCN(c4cc(C)ccc4C)CC3)s2)cc1 |  |  | inactive | inactive | inactive | inactive | inactive |  |  | inactive |  | 

— PubChem BioAssay AID2393 (NMMLSC, 2010)
